In ChEMBL document CHEMBL5247598 (Eur J Med Chem, 2022):
Active and inactive are the calls of the source. The rule behind the calls is not given here.

How the values were obtained:
NCI/ADR-RES [1] = assay: Induction of apoptosis in human NCI-ADR-RES cells assessed as viable cells at 8 uM incubated for 48 hrs by Annexin V-FITC and DAPI staining based flow cytometry (Rvb= 97.9 %); type: functional; conditions: read-out: Activity
NCI/ADR-RES [2] = assay: Induction of apoptosis in human NCI-ADR-RES cells assessed as viable cells at 8 uM incubated for 24 hrs by Annexin V-FITC and DAPI staining based flow cytometry (Rvb= 97.9 %); type: functional; conditions: read-out: Activity
NCI/ADR-RES [3] = assay: Induction of apoptosis in human NCI-ADR-RES cells assessed as early apoptotic cells at 8 uM incubated for 24 hrs by Annexin V-FITC and DAPI staining based flow cytometry (Rvb= 0.89 %); type: functional
NCI/ADR-RES [4] = assay: Antiproliferative activity against human multidrug resistant NCI-ADR-RES cells overexpressing P-gp assessed as reduction in cell viability incubated for 48 hrs by MTT assay; type: functional, cell-based
NCI/ADR-RES [5] = assay: Induction of apoptosis in human NCI-ADR-RES cells assessed as late apoptotic cells at 8 uM incubated for 24 hrs by Annexin V-FITC and DAPI staining based flow cytometry (Rvb= 0.66 %); type: functional
NCI/ADR-RES [6] = assay: Induction of apoptosis in human NCI-ADR-RES cells assessed as late apoptotic cells at 8 uM incubated for 48 hrs by Annexin V-FITC and DAPI staining based flow cytometry (Rvb= 0.66 %); type: functional
NCI/ADR-RES [7] = assay: Induction of apoptosis in human NCI-ADR-RES cells assessed as necrotic cells at 8 uM incubated for 24 hrs by Annexin V-FITC and DAPI staining based flow cytometry (Rvb= 0.55 %); type: functional
NCI/ADR-RES [8] = assay: Induction of apoptosis in human NCI-ADR-RES cells assessed as early apoptotic cells at 8 uM incubated for 48 hrs by Annexin V-FITC and DAPI staining based flow cytometry (Rvb= 0.89 %); type: functional
NCI/ADR-RES [9] = assay: Induction of apoptosis in human NCI-ADR-RES cells assessed as necrotic cells at 8 uM incubated for 48 hrs by Annexin V-FITC and DAPI staining based flow cytometry (Rvb= 0.55 %); type: functional
NCI-ADR-RES [10] = assay: Activation of PI3K/AKT signaling pathway in human NCI-ADR-RES cells assessed as increase in PI3K phosphorylation at 3 uM incubated for 24 to 48 hrs by Western blot analysis; type: cell-based; conditions: filed as activator, time 24-48 hrs
NCI-ADR-RES [11] = assay: Activation of PI3K/AKT signaling pathway in human NCI-ADR-RES cells assessed as increase in AKT phosphorylation at 3 uM incubated for 24 to 48 hrs by Western blot analysis; type: cell-based; conditions: filed as activator, time 24-48 hrs

## COc1cccc2c1C(=O)c1c(O)c3c(c(O)c1C2=O)C[C@@](O)(C(=O)CO)C[C@@H]3O[C@H]1C[C@H](N)[C@H](O)[C@H](C)O1 [DOXORUBICIN]
NCI/ADR-RES [1]
  viability at 8 µM: 92.8%
NCI/ADR-RES [2]
  viability at 8 µM: 98.3%
NCI/ADR-RES [3]
  Activity: 0.64%
NCI/ADR-RES [4]
  IC50: 58.5 µM
NCI/ADR-RES [5]
  Activity: 0.74%
NCI/ADR-RES [6]
  Activity: 4.03%
NCI/ADR-RES [7]
  Activity: 0.39%
NCI/ADR-RES [8]
  Activity: 1.78%
NCI/ADR-RES [9]
  Activity: 1.47%
NCI-ADR-RES [10]
  Activity: Active
NCI-ADR-RES [11]
  Activity: Active
